We go through four compounds from patent US20160243176A1, “EXTRACTS FROM PLANTS OF THE MORINGACEAE FAMILY AND METHODS OF MAKING” (RUTGERS, THE STATE UNIVERSITY OF NEW JERSEY, priority 2013, published 2016).

Data set [1] in a line: Compound stability of MICs in moringa extract stored at 37° C. It counts as physicochemical. As to conditions: 37° C. for 30 days, compared to day 0.
The conditions of data set [2]: rotoevaporation 1 hour at 50° C., compared to freeze-dried samples. From the text:
Drying the 1:5 ratio preparations can be achieved by rotoevaporation, followed by freeze-drying or spray drying. […] Further concentration of MICs and removal of sugars from the extract can also be performed with solid phase-extraction (SPE).

In data set [3] the test system is iNOS. Briefly: LPS-induced iNOS gene expression in RAW 264.7 macrophages. It counts as cell-based. As to conditions: 1 and 5 μM; RAW 264.7, LPS. The method, then:
(§1) All reagents were supplied from Sigma-Aldrich Co. (St. Louis, Mo.) unless otherwise noted. RAW 264.7 macrophages (ATCC TIB-71) were maintained in Dulbecco's modified Eagle's medium (Caisson, North Logan, Utah) supplemented with 100 U/mL penicillin, 100 μg/mL streptomycin, and 10% fetal bovine serum. Cells were incubated at 37° C. in a 5% CO2 humidified atmosphere and subcultured by cell scraping. For experiments, RAW cells were plated at a density of 4×10^5 cells/mL in 24-well plates. Cells were incubated overnight (18 h), washed with warm 37° C. PBS, and medium was replaced fresh DMEM medium. […] Lipopolysaccharide (1 μg/mL) was added after 2 h incubation with treatments to elicit inflammatory responses. Cells were treated in duplicate or triplicate. After an additional 6 h incubation period, media were collected and cells were washed with PBS prior to collection in TRIzol® Reagent (Ambion, Life Technologies). […]
(§2) Total RNA was extracted from cells according to manufacturer's specifications. […] RNA integrity was evaluated by running about 1 μg of RNA on a 1% agarose gel. […]
(§3) Quantitative PCR amplifications were performed on an ABI 7300 Real-Time PCR System (Applied Biosystems) with the following thermal cycler profile: 2 minutes, 50° C.; 10 minutes, 95° C.; 15 seconds, 95° C.; 1 minute, 60° C. for the dissociation stage; 15 seconds, 95° C.; 1 minutes, 60° C.; and 15 seconds, 95° C. […]

Data set [4] relates to IL-1β. As to the kind of experiment: LPS-induced IL-1β gene expression in RAW 264.7 macrophages. It counts as cell-based. As to conditions: 1 and 5 μM; RAW 264.7, LPS. As for the experimental part:
as §1, §2, §3

The subject of data set [5] is IL-6. Briefly: LPS-induced IL-6 gene expression in RAW 264.7 macrophages. It counts as cell-based. As to conditions: 5 μM; RAW 264.7, LPS. As for the experimental part: as §1, §2, §3
Data set [6] deals with TNF-α. Briefly: LPS-induced TNF-α gene expression in RAW 264.7 macrophages. As to conditions: any of the concentrations tested; RAW 264.7, LPS. Type of data set: cell-based. The method, then:
as §1, §2, §3

Data set [7] has as its system TNF-α. Briefly: TNF-α secretion analysis (ELISA) in RAW 264.7 macrophages. Type of data set: cell-based, Mouse. As to conditions: 5 μM. The method, then:
(§4) All reagents were supplied from Sigma-Aldrich Co. (St. Louis, Mo.) unless otherwise noted. RAW 264.7 macrophages (ATCC TIB-71) were maintained in Dulbecco's modified Eagle's medium (Caisson, North Logan, Utah) supplemented with 100 U/mL penicillin, 100 μg/mL streptomycin, and 10% fetal bovine serum. Cells were incubated at 37° C. in a 5% CO2 humidified atmosphere and subcultured by cell scraping. For experiments, RAW cells were plated at a density of 4×10^5 cells/mL in 24-well plates. Cells were incubated overnight (18 h), washed with warm 37° C. PBS, and medium was replaced fresh DMEM medium. […] Lipopolysaccharide (1 μg/mL) was added after 2 h incubation with treatments to elicit inflammatory responses. Cells were treated in duplicate or triplicate. After an additional 6 h incubation period, media were collected and cells were washed with PBS prior to collection in TRIzol® Reagent (Ambion, Life Technologies). Samples were stored at −80° C. prior to processing.
After treatments, 1 mL of media was collected and immediately centrifuged at 13,500 g at 4° C. for 10 minutes. The supernatant was preserved at −80° C. until further processing with the BD OptEIATM Mouse TNF ELISA kit (BD Bioscience, San Jose, Calif.) following the manufacturer's protocol. […] TNF-α levels were quantified using a reference standard curve provided with the kit. Absorbance was read at 450 nm and corrected at 570 nm.
On the technique in general: An ELISA detects its analyte on a solid surface through an enzyme-linked reagent.

For data set [8], the system named is Nitric oxide (NO). As to the kind of experiment: Nitric oxide production analysis (Griess) in RAW 264.7 macrophages. Type of data set: cell-based. As to conditions: 5 μM. As for the experimental part:
as §4
After treatments, 1 mL of media was collected and assayed in duplicate following the Griess Reagent System provided by Promega (Promega Corporation; Madison, Wis.). The nitrite standard (0.1 M sodium nitrite) reference curve was built performing a serial dilution (0 to 100 μM). Absorbance was read at 540 nm.
In general terms: Nitrite, measured by Griess reagent, commonly stands in for NO production.

For data set [9], the system named is RAW 264.7 macrophages. Briefly: MTT-based cell viability assay. As to conditions: concentrations tested in anti-inflammatory assays. The method, then: The effect of the treatments on cell viability was measured using MTT [3-(4,5-dimethyl-2-thiazolyl)-2,5-diphenyltetrazolium bromide] (TCI, Portland, Oreg.) (Mosmann, 1983). MTT (5 mg/mL) was dissolved in PBS (Cayman Chemical, Ann Arbor, Mich.), filtered through a 0.22 μm membrane and added to treated cells during the last 3-4 hours of treatment. Media were carefully aspirated and cells were dissolved in DMSO. The absorbance was read at 570 nm.

Data set [10] has as its system H4IIE rat hepatoma cells. Briefly: In vitro gluconeogenesis: glucose production. Type of data set: cell-based. As to conditions: HII4E liver cells; for activity on glucose production relative to SF: same concentrations; for IC50: range of 5 concentrations. The method, then:
H4IIE rat hepatoma cells (CRL-1548, American Type Culture Collection, Manassas, Va.) were assayed for glucose production as previously described (21). Cell viability was measured by the 3-(4,5-Dimethyl-2-thiazolyl)-2,5-diphenyltetrazolium bromide (MTT; TCI, Portland, Oreg.) assay (22). RNA extraction, cDNA synthesis and qPCR for gene expression of PEPCK and G6P were performed as described above.

Data set [11] has as its system NO formation. As to conditions: Cheenpracha et al., 2010; read-out: NO inhibition IC50; cited from earlier work.
For data set [12] the following is noted: after 6 days at 37° C.; Franklin et al., 2013; cited from earlier work.

With `C[C@@H]1O[C@@H](Oc2ccc(CN=C=S)cc2)[C@H](O)[C@H](O)[C@H]1O` [MIC-1, 4-[(α-L-rhamnosyloxy)benzyl] isothiocyanate], the “degradation of MIC in moringa extract” value in data set [1] is “approximately 80%”. The “loss of MIC under rotoevaporation conditions” value in data set [2] is recorded as “No significant loss”. Moreover, in [3], the “mRNA expression of iNOS” value is “significant reduction”. Moreover, in data set [4], the “mRNA expression of IL-1β” value was “significant reduction”. The IL-6 gene expression entry in data set [5] is on record as “decrease IL-6 gene expression significantly”. In addition, in data set [6], the TNF-α gene expression result is “no reduction”. In addition, in data set [7], the “reduction of TNF-α production” value is reported as 20%. Besides, the NO formation result in data set [8] is recorded as “inhibited NO formation”. Further, in [9], the “cytotoxicity (MTT cell viability)” value was “no signs of cytotoxicity”. Also, the “activity on glucose production relative to SF” value in [10] is listed as “superior activity to SF”. Also, the half-inhibitory concentration (IC50) (in general, the concentration that gives 50% inhibition) in data set [11] is 14.4 µM.
As for `CC(=O)O[C@@H]1[C@@H](O)[C@@H](O)[C@H](Oc2ccc(CN=C=S)cc2)O[C@H]1C` [MIC-4, 4-[(4′-O-acetyl-α-L-rhamnosyloxy)benzyl] isothiocyanate], the “degradation of MIC in moringa extract” value in data set [1] is on record as approximately 20%. In addition, the “loss of MIC under rotoevaporation conditions” value in [2] is “No significant loss”. Besides, the “mRNA expression of iNOS” value in [3] is listed as “significant reduction”. Besides, in data set [4], the “mRNA expression of IL-1β” value is recorded as “significant reduction”. Also, in data set [6], the TNF-α gene expression result was “no reduction”. Moreover, in data set [7], the “reduction of TNF-α production” value turned out to be 27%. Moreover, in [8], the NO formation entry is listed as “inhibited NO formation”. For the same compound, the “cytotoxicity (MTT cell viability)” value in data set [9] was “no signs of cytotoxicity”. For the same compound, in data set [10], the IC50 came to 7 µM and the “activity on glucose production relative to SF” value is “superior activity to SF”. In data set [11], the IC50 is 2.71 µM.
With `C[S+]([O-])CCCCN=C=S` (stereo not drawn) [SF, sulforaphane], the “degradation of SF” value in [12] is reported as 75%.
`CN(C)C(=N)N=C(N)N` [metformin, reference compound] had a concentration for half-maximal inhibition (IC50) in data set [10] (Rattus norvegicus) of 800 µM.
